From patent US12606552B2, “Bifunctional compound, preparation method therefor, and use thereof” (SUZHOU KINTOR PHARMACEUTICALS, INC., priority 2020, dated 2026) come the findings set out here.

The target in this assay is T1, AR (Homo sapiens, UniProt P10275, T878A).
T1 sequence (P10275 1-920 T878A): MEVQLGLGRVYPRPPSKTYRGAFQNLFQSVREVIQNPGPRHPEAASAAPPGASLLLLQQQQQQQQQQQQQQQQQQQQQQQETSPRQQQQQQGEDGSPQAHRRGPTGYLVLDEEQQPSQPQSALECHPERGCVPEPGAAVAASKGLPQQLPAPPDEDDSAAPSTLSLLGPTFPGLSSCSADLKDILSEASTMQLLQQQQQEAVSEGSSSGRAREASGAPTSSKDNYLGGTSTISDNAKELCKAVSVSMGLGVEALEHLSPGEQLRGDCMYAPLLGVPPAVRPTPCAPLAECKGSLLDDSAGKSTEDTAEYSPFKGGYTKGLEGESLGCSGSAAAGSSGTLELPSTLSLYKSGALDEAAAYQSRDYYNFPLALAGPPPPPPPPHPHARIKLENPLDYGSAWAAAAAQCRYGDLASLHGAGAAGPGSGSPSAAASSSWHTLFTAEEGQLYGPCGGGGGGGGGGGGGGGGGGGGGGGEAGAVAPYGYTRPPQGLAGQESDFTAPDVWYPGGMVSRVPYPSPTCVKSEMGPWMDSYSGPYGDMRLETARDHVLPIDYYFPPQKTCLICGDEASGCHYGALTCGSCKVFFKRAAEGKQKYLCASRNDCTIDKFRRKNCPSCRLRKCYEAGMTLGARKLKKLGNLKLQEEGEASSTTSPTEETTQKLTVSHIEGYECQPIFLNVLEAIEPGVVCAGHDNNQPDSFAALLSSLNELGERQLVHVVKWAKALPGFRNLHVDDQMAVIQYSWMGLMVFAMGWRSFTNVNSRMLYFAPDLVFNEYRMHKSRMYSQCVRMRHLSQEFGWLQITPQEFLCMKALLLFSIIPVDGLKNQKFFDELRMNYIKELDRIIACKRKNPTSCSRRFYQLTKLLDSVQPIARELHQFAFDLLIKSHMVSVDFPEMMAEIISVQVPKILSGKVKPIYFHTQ
Nature of the assay: Effects of compounds on AR expression in LNCaP cells (ELISA, DC50). Conditions: 24 hours of drug treatment, AR by ELISA. Type of assay: cell-based. The arrangement: Measurement of the Effects of Drugs on the Expression of AR in Cells by ELISA Method; endogenous in cells; host or cells: LNCaP. On the procedure:
Activity Assay Example 1: Effects of Compounds on AR Expression in LNCaP Cells
1. Cell Line and Cell Culture
Human prostate cancer cells LNCaP (Shanghai Chinese Academy of Sciences Cell Bank). LNCaP was cultured in 1640 medium containing 10% fetal bovine serum. The cells grow in clusters, with weak adhesion to the bottom of the culture flask, slow proliferation, with a multiplication time of 72 h. The cells are closely adhered to each other and need to be digested with 0.05% trypsin containing 0.025% EDTA. The cells were passaged every 3 days. The cells were cultured at 37° C. and 5% CO2 in a humidified incubator
2. Cell plating: The supernatant was discarded, and the Lncap cells in the logarithmic growth phase were taken, washed with PBS once, and added with appropriate 0.05% trypsin digestion solution to be fully digested into single cell suspension, and centrifuged, resuspended and counted to make the number of cells about 15,000 per well, then inoculated in a 96-well plate, placed at 37° C., 5% CO2 and cultured overnight for 24 h.
3. Preparation and Addition of Compound Solutions
About 2 mg of each compound was weighed and dissolved in DMSO to make the stock solution with a concentration of 10 mmol/L. Dilution process (final concentration dilution: 2, 0.667, 0.222, 0.074, 0.0245, 0.008, 0.003, 0.001, 0.0003, 0.0001 μmol/L): 10 centrifuge tubes with a volume of 1.5 mL were taken and numbered 1, 2, 3, 4, 5, 6, 7, 8, 9, and 10, 80 μL DMSO was added to tube No. 1, and 60 μL DMSO was added to tubes No. 2 to No. 10, 20 μL of the stock solution was pipetted to tube No. 1 and mixed well; 30 μL was pipetted from tube No. 1 into tube No. 2 and mixed well. 30 μL was pipetted from tube No. 2 into tube No. 3 and mixed well, and so forth, to obtain samples No. 4-10, and to obtain working solutions of compounds of different concentrations respectively. 2 μL was pipetted from the above-mentioned tubes No. 1-10 into each corresponding sterile deep-well plates, added with 198 μL of culture medium, and mixed well. 11 ul was added to each well of the 96-well cell plate cultured overnight to obtain the corresponding desired concentrations (2, 0.667, 0.222, 0.074, 0.0245, 0.008, 0.003, 0.001, 0.0003, 0.0001 μmol/L).
4. Measurement of the Effects of Drugs on the Expression of AR in Cells by ELISA Method
After 24 hours of drug treatment, the supernatant was removed, and 200 μL of PBS was added to wash cells, and then the supernatant was removed, and 100 μL of cell lysate was added to lyse cells on ice for 20 min, then the cell lysate was centrifuged at 4000 rpm for 20 min at 4° C. and the supernatant was taken for later use. The measurement steps of the supernatant were according to the ELISA kit instructions:
4.1 The slats required for the test were taken out from the sealed bag that has been equilibrated to room temperature. Please put the unused slats and desiccant back into the aluminum foil bag and compress the self-sealing strip, seal the bag, and store at 4° C.
4.2 Standards and sample diluents were added to blank wells, and different concentrations of standards (10 ul/well) and sample diluents (90 ul/well) were added to the remaining corresponding wells, and the reaction wells were sealed with sealing tape, and refrigerated at 4° C. overnight.
4.3 Primary antibody was diluted with dilution buffer to the corresponding concentration and added to each well in 100 ul/well. The reaction wells were sealed with sealing tape and incubated at 37° C. for 60 min.
4.4 Secondary antibody was diluted with dilution buffer to the corresponding concentration and added to each well in 100 ul/well. The reaction wells were sealed with sealing tape and incubated at 37° C. for 30 min.
4.5 The reaction wells were added with 100 ul/well of substrate (TMB) and incubated at room temperature for 30 min.
4.6 The reaction wells were added with 100 ul/well of stop solution, mixed well and then the OD450 value was measured with a microplate reader. […]
For orientation: ELISA stands for enzyme-linked immunosorbent assay.

As for `CC(C)(C)[C@H](NC(=O)COCCCCOc1ccc(-c2ncc(N3C(=S)N(c4ccc(C#N)c(C(F)(F)F)c4F)C(=O)C3(C)C)cc2F)c(C(F)(F)F)c1)C(=O)N1C[C@H](O)C[C@H]1c1nc(-c2cccs2)c[nH]1` [Compound A210], the DC50 is 834 nM.

For `Cc1cc(C(C(=O)N2C[C@H](O)C[C@H]2C(=O)N[C@@H](CC(=O)N2CCC(C#Cc3ccc(N4C(=S)N(c5ccc(C#N)c(C(F)(F)F)c5F)C(=O)C4(C)C)cc3)CC2)c2ccc(-c3scnc3C)cc2)C(C)C)on1` (stereo partly drawn) [Compound A176], the DC50 was found to be 62.1 nM.

`CC1(C)C(=O)N(c2ccc(C#N)c(C(F)(F)F)c2F)C(=S)N1c1cnc(-c2ccc(OC3CCN(C(=O)COc4cccc5c4C(=O)N(C4CCC(=O)NC4=O)C5=O)CC3)c(F)c2)c(F)c1` (stereo not drawn) [Compound A43] displayed a DC50 of 88.3 nM.

Consider `CC1(C)C(=O)N(c2ccc(C#N)c(C(F)(F)F)c2F)C(=S)N1c1cnc(-c2cc(F)c(OC3CCN(C(=O)COc4ccc5c(c4)C(=O)N(C4CCC(=O)NC4=O)C5=O)CC3)c(F)c2)c(F)c1` (stereo not drawn) [Compound A189], for which the DC50 was 329 nM.

The compound `Cc1ncsc1-c1ccc(CNC(=O)[C@@H]2C[C@@H](O)CN2C(=O)[C@@H](NC(=O)COc2ccc(-c3ccc(N4C(=S)N(c5ccc(C#N)c(C(F)(F)F)c5F)C(=O)C4(C)C)cn3)cc2)C(C)(C)C)cc1` [Compound A48] returned a DC50 above 2000 nM.

In turn, `CC(C)(C)[C@H](NC(=O)COCCCCOc1ccc(-c2ncc(N3C(=S)N(c4ccc(C#N)c(C(F)(F)F)c4F)C(=O)C3(C)C)cc2F)c(C(F)(F)F)c1)C(=O)N1C[C@H](O)C[C@H]1c1nc(-c2cncnc2)c[nH]1` [Compound A227] displayed a DC50 of 24.8 nM.

The compound `CNC(=O)c1ccc(-c2c[nH]c([C@@H]3C[C@@H](O)CN3C(=O)[C@@H](NC(=O)COCCCCOc3ccc(-c4ccc(N5C(=S)N(c6ccc(C#N)c(C(F)(F)F)c6F)C(=O)C5(C)C)cn4)cc3)C(C)(C)C)n2)cc1` [Compound A234] registered a DC50 of 26.1 nM.

For the compound `Cc1ncsc1-c1ccc(CNC(=O)[C@@H]2C[C@@H](O)CN2C(=O)[C@@H](NC(=O)COCCC(F)COc2ccc(-c3ncc(N4C(=S)N(c5ccc(C#N)c(C(F)(F)F)c5F)C(=O)C4(C)C)cc3F)cc2F)C(C)(C)C)cc1` (stereo partly drawn) [Compound A147], the DC50 worked out at 84.9 nM.

In the case of `CC(C)(C)[C@H](NC(=O)COCCCCOc1ccc(-c2ccc(N3C(=S)N(c4ccc(C#N)c(C(F)(F)F)c4F)C(=O)C3(C)C)cn2)cc1)C(=O)N1C[C@H](O)C[C@H]1c1nc(-c2cncnc2)c[nH]1` [Compound A228], the DC50 was determined as 107 nM.

For `Cc1ncsc1-c1ccc(CNC(=O)[C@@H]2C[C@@H](O)CN2C(=O)[C@@H](NC(=O)c2ccc(CC(=O)Nc3ccc(-c4ccc(N5C(=S)N(c6ccc(C#N)c(C(F)(F)F)c6F)C(=O)C5(C)C)cn4)cc3)cc2)C(C)(C)C)cc1` [Compound A244], the DC50 amounted to 173 nM.

Consider `COc1c(C#N)ccc(N2C(=O)C(C)(C)N(c3cnc(-c4ccc(OCCCCOCC(=O)N[C@H](C(=O)N5C[C@H](O)C[C@H]5C(=O)NCc5ccc(-c6scnc6C)cc5)C(C)(C)C)cc4C(F)(F)F)c(F)c3)C2=S)c1F` [Compound A196], for which the DC50 turned out to be 39 nM.

Take `Cc1ncsc1-c1ccc(CNC(=O)[C@@H]2C[C@@H](O)CN2C(=O)[C@@H](NC(=O)COCCC(F)(F)COc2ccc(-c3ncc(N4C(=S)N(c5ccc(C#N)c(C(F)(F)F)c5F)C(=O)C4(C)C)cc3F)c(C(F)(F)F)c2)C(C)(C)C)cc1` [Compound A167]: the DC50 worked out at 204 nM.

`Cc1ncsc1-c1ccc(CNC(=O)[C@@H]2C[C@@H](O)CN2C(=O)[C@@H](NC(=O)COCC(F)CCOc2ccc(-c3ncc(N4C(=S)N(c5ccc(C#N)c(C(F)(F)F)c5F)C(=O)C4(C)C)cc3F)c(C(F)(F)F)c2)C(C)(C)C)cc1` (stereo partly drawn) [Compound A166] came in with a DC50 of 144 nM.

For the compound `Cc1ncsc1-c1c[nH]c([C@@H]2C[C@@H](O)CN2C(=O)[C@@H](NC(=O)COCCCCOc2ccc(-c3ncc(N4C(=S)N(c5ccc(C#N)c(C(F)(F)F)c5F)C(=O)C4(C)C)cc3F)cc2F)C(C)(C)C)n1` [Compound A160], the DC50 came to 151 nM.

`CC1(C)C(=O)N(c2ccc(C#N)c(C(F)(F)F)c2F)C(=S)N1c1cnc(-c2ccc(OCCNC(=O)COc3cccc4c3C(=O)N(C3CCC(=O)NC3=O)C4=O)c(F)c2)c(F)c1` (stereo not drawn) [Compound A39] gave a DC50 of 19.4 nM.

In turn, `Cc1ncsc1-c1ccc(CNC(=O)[C@@H]2C[C@@H](O)CN2C(=O)[C@@H](NC(=O)Cc2ccc(C(=O)Nc3ccc(-c4ccc(N5C(=S)N(c6ccc(C#N)c(C(F)(F)F)c6F)C(=O)C5(C)C)cn4)cc3)cc2)C(C)(C)C)cc1` [Compound A240] had a DC50 of 264 nM.

Take `CC(C)(C)[C@H](NC(=O)COCCCCOc1ccc(-c2ncc(N3C(=S)N(c4ccc(C#N)c(C(F)(F)F)c4F)C(=O)C3(C)C)cc2F)c(C(F)(F)F)c1)C(=O)N1C[C@H](O)C[C@H]1C(=O)NCc1ccc(C(N)=O)cc1` [Compound A131]: the DC50 came to 34.8 nM.

For the compound `COc1c(C#N)ccc(N2C(=O)C(C)(C)N(c3cnc(-c4ccc(OC5CCN(C(=O)COc6ccc7c(c6)C(=O)N(C6CCC(=O)NC6=O)C7=O)CC5)cc4F)c(F)c3)C2=S)c1F` (stereo not drawn) [Compound A194], the DC50 came to 246 nM.

`CC(C)(C)[C@H](NC(=O)COCCCCOc1ccc(-c2ncc(N3C(=S)N(c4ccc(C#N)c(C(F)(F)F)c4F)C(=O)C3(C)C)cc2F)c(C(F)(F)F)c1)C(=O)N1C[C@H](O)C[C@H]1C(=O)NCc1ccccc1` [Compound A132]: the DC50 is 161 nM.

On to `Cc1ncsc1-c1ccc(CNC(=O)[C@@H]2C[C@@H](O)CN2C(=O)[C@@H](NC(=O)COCCCOCCCCCOc2ccc(N3C(=S)N(c4ccc(C#N)c(C(F)(F)F)c4F)C(=O)C3(C)C)cn2)C(C)(C)C)cc1` [Compound A247], for which the DC50 stood at 75.5 nM.

In turn, `Cc1cc(C(C(=O)N2C[C@H](O)C[C@H]2C(=O)N[C@@H](CC(=O)NCCCCCCOc2ccc(-c3ncc(N4C(=S)N(c5ccc(C#N)c(C(F)(F)F)c5F)C(=O)C4(C)C)cc3F)cc2F)c2ccc(-c3scnc3C)cc2)C(C)C)on1` (stereo partly drawn) [Compound A177] yielded a DC50 of 253 nM.
